From paper PMC4939481 (Bioorganic & medicinal chemistry letters, 2016) come the findings set out here.

Experiment [1] concerns the target T1, recombinant human TDP2 (hTDP2) (Homo sapiens, UniProt O95551).
T1 sequence (O95551 1-362): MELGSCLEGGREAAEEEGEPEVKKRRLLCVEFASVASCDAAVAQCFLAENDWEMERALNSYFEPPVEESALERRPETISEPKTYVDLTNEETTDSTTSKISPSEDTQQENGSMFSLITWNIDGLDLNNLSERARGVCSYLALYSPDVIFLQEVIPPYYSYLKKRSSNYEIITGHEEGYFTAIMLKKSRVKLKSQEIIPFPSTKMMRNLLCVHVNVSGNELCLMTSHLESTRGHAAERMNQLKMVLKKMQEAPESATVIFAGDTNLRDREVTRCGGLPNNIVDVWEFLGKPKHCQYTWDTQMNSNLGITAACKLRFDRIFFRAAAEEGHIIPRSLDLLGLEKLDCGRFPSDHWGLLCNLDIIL
The experiment is described as follows: Inhibition of recombinant human TDP2. Format: biochemical, H. sapiens.

Experiment [2] has as its target recombinant human TDP1 (hTDP1) (Homo sapiens, UniProt Q9NUW8). The experiment is described as follows: Inhibition of recombinant human TDP1. Format: biochemical, H. sapiens.

The structures appear in SMILES notation. Some results are limits rather than exact numbers.

recombinant human TDP1 (hTDP1), sequence (Q9NUW8 whole entry): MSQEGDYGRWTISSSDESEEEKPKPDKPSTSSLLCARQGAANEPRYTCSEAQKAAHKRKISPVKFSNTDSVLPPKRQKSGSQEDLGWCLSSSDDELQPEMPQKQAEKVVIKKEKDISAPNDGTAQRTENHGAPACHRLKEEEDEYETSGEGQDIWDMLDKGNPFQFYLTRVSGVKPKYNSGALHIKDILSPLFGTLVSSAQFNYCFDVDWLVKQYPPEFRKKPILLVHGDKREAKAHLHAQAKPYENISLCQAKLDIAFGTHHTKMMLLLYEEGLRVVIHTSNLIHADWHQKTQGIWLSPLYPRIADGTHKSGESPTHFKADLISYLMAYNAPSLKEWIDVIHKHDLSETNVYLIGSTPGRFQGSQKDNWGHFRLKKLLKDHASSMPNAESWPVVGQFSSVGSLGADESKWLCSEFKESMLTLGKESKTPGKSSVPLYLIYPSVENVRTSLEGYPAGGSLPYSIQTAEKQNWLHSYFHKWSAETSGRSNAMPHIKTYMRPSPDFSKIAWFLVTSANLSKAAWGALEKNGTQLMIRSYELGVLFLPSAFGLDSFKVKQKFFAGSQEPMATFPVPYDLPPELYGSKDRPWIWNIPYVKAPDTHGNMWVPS

The IC50 is the concentration that gives 50% inhibition. For `COc1ccc(CC2C(=O)N(c3ccc([N+](=O)[O-])cc3)N=C2C(=O)O)cc1Oc1ccc(F)cc1` (stereo not drawn) [Compound 21], the IC50 in experiment [1] was 20 µM; in experiment [2], more than 200 µM.
Take `O=C(Cc1ccccc1)NC(CSSCC(NC(=O)Cc1ccccc1)C(=O)O)C(=O)O` (stereo not drawn) [NSC3198]: the IC50 in experiment [1] stood at 9.5 µM.
